Test results reported in PMC6375636, “Monotherapy with a low-dose lipopeptide HIV fusion inhibitor maintains long-term viral suppression in rhesus macaques” (PLoS Pathogens, 2019).
Like-named read-outs stand apart in the source and are kept apart here. Peptide text beside a SMILES is read from it. * marks the point of attachment. Stearoyl = CCCCCCCCCCCCCCCCCC(=O)*

Key:
[1] = biological target: HIV-1 89.6; type: cell-based; settings: Table 2; 89.6, subtype B, R5X4; mean ± SD of 3 assays in triplicate
Procedure, shortened: (§1)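 Env-pseudotyped viruses were made in HEK293T by cotransfecting an Env plasmid with the luciferase-encoding pSG3Δenv backbone. Threefold inhibitor dilutions were preincubated 1 h at room temperature with 100 TCID50 of virus, then added to TZM-bl cells (10^4/well) for 48 h at 37°C before luciferase was read.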

[2] = biological target: HIV-1 LAI; type: cell-based; settings: Table 2, subtype B, X4, mean ± SD of 3 assays in triplicate
Procedure, shortened: as §1

[3] = biological target: HIV-1 RHPA.c/2635; type: cell-based; settings: Table 2; RHPA.c/2635, subtype B, R5; mean ± SD of 3 assays in triplicate
Procedure, shortened: as §1

[4] = biological target: HIV-1 WITO.c/2474; type: cell-based; settings: Table 2; WITO.c/2474, subtype B, R5; mean ± SD of 3 assays in triplicate
Procedure, shortened: as §1

[5] = test system: HIV-1 pseudovirus, primary Env AE03; type: cell-based; settings: Env AE03, subtype A/E; mean ± SD of 3 assays in triplicate
Procedure, shortened: as §1

[6] = test system: HIV-1 pseudovirus, primary Env B01; type: cell-based; settings: Env B01, subtype B'; mean ± SD of 3 assays in triplicate
Procedure, shortened: as §1

[7] = test system: HIV-1 pseudovirus, primary Env CH64.20; type: cell-based; settings: Env CH64.20, subtype B/C; mean ± SD of 3 assays in triplicate
Procedure, shortened: as §1

[8] = test system: HIV-1 pseudovirus, primary Env Du156; type: cell-based; settings: Env Du156, subtype C; mean ± SD of 3 assays in triplicate
Procedure, shortened: as §1

[9] = test system: HIV-1 pseudovirus, primary Env HIV_25710–2.43; type: cell-based; settings: Env HIV_25710–2.43, subtype C; mean ± SD of 3 assays in triplicate
Procedure, shortened: as §1

[10] = biological target: HIV-1JRCSF; type: cell-based
Procedure, shortened: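 Steps: transfect HEK293T to produce virus, harvesting supernatants at 48 h; titrate on TZM-bl; mix 100 TCID50 with inhibitor in threefold dilutions for 1 h at room temperature; infect TZM-bl cells, 10^4 per well; after 48 h at 37°C, measure luciferase.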

[11] = in vivo; settings: rhesus monkey, sc, 3 mg/kg
Protocol: A single-cycle infection assay was performed to determine the inhibitory activity of the monkey sera on HIV-1NL4-3 pseudovirus. The 50% effective concentration was defined as the fold serum dilution that inhibited 50% of virus infection.

[12] = rat, in vivo, sc, 6 mg/kg
[13] = Rat IV, 6 mg/kg, n = 6; serum, LC-MS/MS, non-compartmental

Compound: CCCCCCCCCCCCCCCCCC(=O)NCCCC[C@H](NC(=O)[C@H](CCC(=O)O)NC(=O)[C@H](CC(C)C)NC(=O)[C@H](CCCCN)NC(=O)[C@H](CCCCN)NC(=O)[C@H](CC(C)C)NC(=O)[C@H](CCC(=O)O)NC(=O)[C@H](CCC(=O)O)NC(=O)[C@H](CCC(=O)O)NC(=O)[C@H](CC(N)=O)NC(=O)[C@H](CCCCN)NC(=O)[C@H](CCCCN)NC(=O)[C@H](CCC(N)=O)NC(=O)[C@H](CCC(N)=O)NC(=O)[C@H](CCC(=O)O)NC(=O)[C@H](CCC(=O)O)NC(=O)[C@H](C)NC(=O)[C@H](CCCCN)NC(=O)[C@H](CCCCN)NC(=O)[C@H](CC(C)C)NC(=O)[C@H](CC(C)C)NC(=O)[C@H](CCC(=O)O)NC(=O)[C@H](CCC(=O)O)NC(=O)[C@@H](NC(=O)[C@H](CCCCN)NC(=O)[C@H](CCC(N)=O)NC(=O)[C@H](CCC(=O)O)NC(=O)[C@H](Cc1c[nH]c2ccccc12)NC(C)=O)[C@@H](C)CC)C(N)=O [LP-80] (Ac-WEQKIEELLKKAEEQQKKNEEELKKLEK(Stearoyl)-NH2)
- IC50 [1]: 5.27 ± 0.3 pM
- IC50 [2]: 5.85 ± 0.86 pM
- IC50 [3]: 4.81 ± 1.98 pM
- IC50 [4]: 3.38 ± 1.09 pM
- IC50 [5]: 3.44 ± 0.83 pM
- IC50 [6]: 3.49 ± 0.4 pM
- IC50 [7]: 5.75 ± 0.19 pM
- IC50 [8]: 1.1 ± 0.35 pM
- IC50 [9]: 3.2 ± 0.68 pM
- IC50 ([10]; Fig 1, replication-competent virus, mean ± SD of three assays in triplicate, read-out: Anti-HIV activity (IC50, pM) JRCSF infection): 2.45 pM
- IC50 ([10]; Table 2, JR-CSF, subtype B, R5, mean ± SD of 3 assays in triplicate, read-out: Mean IC50): 4.02 ± 2.63 pM
- AUC(0-inf) [11]: 601 ± 29.3 µg·h/mL
- AUC(0-t) [11]: 601 ± 29.3 µg·h/mL
- CL/F [11]: 5 mL/h/kg
- Cmax [11]: 24800 ± 10800 ng/mL
- MRT [11]: 23.7 ± 2.26 h
- Tmax [11]: 5.83 ± 3.82 h
- Vd/F [11]: 0.0989 ± 0.0034 L/kg
- half-life [11]: 13.7 ± 0.86 h
- Vd/F [12]: 0.535 ± 0.251 L/kg
- Cl_F_obs/Cl_obs [13]: 21.31 ± 3.38 mL/h/kg
- Injection site reactions (ISRs) (SC 3 mg/kg during the treatment): did not cause significant injection site reactions
- TG (after 1st treatment (DPI 263), before (DPI 191) 0.58 ± 0.14): 0.51 ± 0.07 mmol/L
- IgA (after 1st treatment (DPI 263), before (DPI 191) 0.93 ± 0.33): 1.05 ± 0.12 g/L
- IgM (after 1st treatment (DPI 263), before (DPI 191) 1.28 ± 0.6): 1.12 ± 0.56 g/L
- LDL-C (after 1st treatment (DPI 263), before (DPI 191) 1.73 ± 0.44): 1.56 ± 0.37 mmol/L
- Ca (after 1st treatment (DPI 263), before (DPI 191) 2.36 ± 0.11): 2.4 ± 0.06 mmol/L
- HDL-C (after 1st treatment (DPI 263), before (DPI 191) 2.46 ± 0.07): 1.96 ± 0.26 mmol/L
- UA (after 1st treatment (DPI 263), before (DPI 191) 3.08 ± 0.61): 3.25 ± 0.54 µmol/L
- GLU (after 1st treatment (DPI 263), before (DPI 191) 4.32 ± 0.32): 5.02 ± 0.98 mmol/L
- CHO (after 1st treatment (DPI 263), before (DPI 191) 4.42 ± 0.19): 3.90 ± 0.53 mmol/L
- ALP (after 1st treatment (DPI 263), before (DPI 191) 4.6 ± 1.52): 4.2 ± 1.3 U/L
- K (after 1st treatment (DPI 263), before (DPI 191) 4.62 ± 0.13): 4.56 ± 0.18 mmol/L
- TBIL (after 1st treatment (DPI 263), before (DPI 191) 6.11 ± 1.57): 5.52 ± 0.82 µmol/L
- IgG (after 1st treatment (DPI 263), before (DPI 191) 7.12 ± 0.72): 8.6 ± 1.74 g/L
- GGT (after 1st treatment (DPI 263), before (DPI 191) 7.4 ± 1.82): 9.2 ± 3.83 U/L
- UN (after 1st treatment (DPI 263), before (DPI 191) 8.14 ± 2): 8.38 ± 0.74 mmol/L
- AST (after 1st treatment (DPI 263), before (DPI 191) 32.4 ± 3.29): 30.8 ± 3.27 U/L
- CK (after 1st treatment (DPI 263), before (DPI 191) 46.4 ± 9.81): 56.6 ± 10.01 U/L
- TP (after 1st treatment (DPI 263), before (DPI 191) 74 ± 4.53): 71.26 ± 1.76 g/L
- TG (after 2nd treatment (DPI 508), before (DPI 325) 0.67 ± 0.13): 0.62 ± 0.21 mmol/L
- IgA (after 2nd treatment (DPI 508), before (DPI 325) 0.76 ± 0.31): 0.86 ± 0.18 g/L
- IgM (after 2nd treatment (DPI 508), before (DPI 325) 1.41 ± 0.29): 1.49 ± 0.29 g/L
- P (after 2nd treatment (DPI 508), before (DPI 325) 1.74 ± 0.19): 1.29 ± 0.24 mmol/L
- HDL-C (after 2nd treatment (DPI 508), before (DPI 325) 2.46 ± 0.31): 2.66 ± 0.45 mmol/L
- UA (after 2nd treatment (DPI 508), before (DPI 325) 2.54 ± 0.28): 2.54 ± 0.73 µmol/L
- CHO (after 2nd treatment (DPI 508), before (DPI 325) 3.87 ± 0.44): 4.02 ± 0.51 mmol/L
- K (after 2nd treatment (DPI 508), before (DPI 325) 4.7 ± 0.2): 4.64 ± 0.26 mmol/L
- TBIL (after 2nd treatment (DPI 508), before (DPI 325) 5.92 ± 0.9): 5.52 ± 0.9 µmol/L
- UN (after 2nd treatment (DPI 508), before (DPI 325) 9.34 ± 1.26): 7.99 ± 0.92 mmol/L
- ALT (after 2nd treatment (DPI 508), before (DPI 325) 12.8 ± 3.27): 13.2 ± 2.86 U/L
- AST (after 2nd treatment (DPI 508), before (DPI 325) 27.2 ± 3.11): 31.4 ± 4.45 U/L
- CK (after 2nd treatment (DPI 508), before (DPI 325) 54.6 ± 10.74): 55.4 ± 14.19 U/L
- Systemic toxicities (blood biochemical parameters, CD4+ and CD8+ T lymphocytes monitored): No systemic toxicities were observed
- ALP (rhesus monkey, in vivo): 7.4 ± 2.07 U/L
- ALT (rhesus monkey, in vivo): 15.8 ± 3.27 U/L
- Ca (rhesus monkey, in vivo): 2.19 ± 0.03 mmol/L
- GGT (rhesus monkey, in vivo): 10.4 ± 1.95 U/L
- IgG (rhesus monkey, in vivo): 8.52 ± 1.32 g/L
- LDH (rhesus monkey, in vivo): 262.8 ± 48.26 U/L
- LDL-C (rhesus monkey, in vivo): 1.32 ± 0.32 mmol/L
- P (rhesus monkey, in vivo): 0.98 ± 0.07 mmol/L
- TP (rhesus monkey, in vivo): 71.15 ± 2.86 g/L
